Here are results for 3 compounds from US20080103205A1, “Pesticidal compositions and methods of use” (priority 2006, published 2008).

“Also recorded” adds a separate entry of the source.

For experiment [1], the system named is a variety of nematode species, including Caenorhabditis elegans and Meloidogyne incognita. Conditions: 100 ppm; cited from earlier work.
The next experiment concerns H. megidis. Conditions: concentrations up to 200 ug/ml; cited from earlier work.
The test system of experiment [2] is Heterorhabditis bacteriophora. In words: Toxicity test, infective juveniles (J3) of Heterorhabditis bacteriophora. The class given is in vivo. Conditions: 200 ppm, up to 168 hrs of exposure. On the procedure:
Toxicity tests were conducted using infective juveniles (J3) of H. bacteriophora collected from infested Galleria mellonella larvae. Test solution (280 ul) was placed in a well of a 96-well plate and 20 ul aqueous solution containing nematodes was added. The nematodes in 20 ul solution ranged from 15 to 21 (n=10). Plates were sealed with Parafilm™ and incubated at room temperature. Similar tests conducted with 0.2% DMSO alone served as controls. Stock solution prepared in DMSO was added to wells to achieve 200 ppm. Nematode mortality was checked at 24, 48, 72, 120, and 168 hr after incubation. Nematodes that were motionless for 30 seconds when observed under stereo microscope were considered dead and included in mortality counts. Each concentration was replicated five times.
This broad cross resistance supports a role for AT blockers in the action of these compounds.

Experiment [3] relates to voltage-gated chloride channels. The settings on record: cited from earlier work.

As to `CC(C)c1c(O)cc(/C=C/c2ccccc2)cc1O` [DST], the 24 hr lethality in experiment [1] is on record as 100%. For the same compound, the “sensitivity to DST” value in the experiment with H. megidis is given as “completely insensitive”.

In the case of `CCOP(=S)(OCC)Oc1nc(Cl)c(Cl)cc1Cl` [chlorpyrifos], the “toxicity (FIG. 4)” value in experiment [2] was “fully susceptible; also recorded: quite active in killing”.

`Cl[C@H]1[C@H](Cl)[C@@H](Cl)[C@@H](Cl)[C@H](Cl)[C@H]1Cl` [lindane]: the “potency as inhibitor of [35S]TBPS binding, Torpedo membranes versus rat brain” value in experiment [3] is “about 4 fold”.
